Consider 8 molecules from PubChem BioAssay (NCI).

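Method: 48-hour compound exposure of cells in 96-well plates, five concentrations, linear interpolation of endpoints. TGI is the concentration that stops growth completely.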 A value given as a limit tells only on which side of the number the result lay.

What all share (assay): NCI anticancer screen, dose series, 48 h
The subject of experiment [1] is HCT-116 colon.
The subject of experiment [2] is HCT-15 colon.
In experiment [3] the test system is K-562 leukemia.
Experiment [4] deals with KM12 colon.
Experiment [5] has as its system LOX IMVI melanoma.
Experiment [6] deals with M14 melanoma.
In experiment [7] the test system is NCI-H522 lung.
Experiment [8] concerns PC-3 prostate.
Experiment [9] relates to RPMI-8226 leukemia.
The subject of experiment [10] is RXF 393 renal.
Experiment [11] concerns SF-268 CNS.
Experiment [12] relates to SF-295 CNS.
The test system of experiment [13] is SF-539 CNS.
For experiment [14], the system named is SK-OV-3 ovarian.
The subject of experiment [15] is SN12C renal.
The test system of experiment [16] is T-47D breast.
The subject of experiment [17] is TK-10 renal.
The test system of experiment [18] is U251 CNS.
Experiment [19] deals with UO-31 renal.
For experiment [20], the system named is SR leukemia.

For `CC1=C(C(=O)N(C(C)C)C(C)C)CC(C(=O)N(C(C)C)C(C)C)=C(C)N1`, the TGI in [1], in experiment [2], in [3], in [4], in experiment [5] and in [6] was greater than 100 µM throughout. In addition, the TGI in experiment [7], in experiment [8], in experiment [9], in [10], in experiment [11] and in experiment [12] was greater than 100 µM in each case. Moreover, the TGI in experiment [13], in [14], in experiment [15], in experiment [16], in experiment [17] and in [18] was greater than 100 µM in each case. Besides, in [19], the TGI was greater than 100 µM.

For the molecule `O=C(c1ccccc1)N1OCCC1Nc1ccc(Br)cc1` (stereo unspecified), the TGI in experiment [1], in experiment [2], in experiment [3], in [5], in experiment [6] and in [7] was greater than 10 µM each time. The TGI in [8], in [9], in experiment [10], in [11], in experiment [12] and in experiment [13] was greater than 10 µM throughout. Also, the TGI in [14] is greater than 10 µM; in [15] it was greater than 10 µM; in experiment [16], greater than 10 µM; in [17] it was greater than 10 µM; in [19], 8.81 µM.

Turning to `Cc1ccc(C(=O)Nc2ccc(CP(=O)(O)O)cc2CP(=O)(O)O)cc1NC(=O)c1cccc(NC(=O)Nc2cccc(C(=O)Nc3cc(C(=O)Nc4ccc(CP(=O)(O)O)cc4CP(=O)(O)O)ccc3C)c2)c1`, the TGI in experiment [1], in experiment [2], in experiment [3], in experiment [4], in experiment [5] and in experiment [6] was greater than 100 µM throughout. Besides, the TGI in [7], in experiment [8], in [9], in experiment [10], in [11] and in [12] was greater than 100 µM each time. Besides, the TGI in experiment [13], in experiment [14], in experiment [15], in experiment [16], in experiment [17] and in [18] was greater than 100 µM throughout. In experiment [19], the TGI was greater than 100 µM.

Regarding `C=CCc1ccccc1CC1(OCC)OC(=O)c2ccccc21` (stereo unspecified), the TGI in experiment [1], in experiment [2], in experiment [3], in experiment [6], in [7] and in [8] was greater than 100 µM in each case. For the same molecule, the TGI in [9], in [10], in experiment [11], in experiment [12], in experiment [13] and in [14] was greater than 100 µM each time. The TGI in experiment [15], in experiment [16], in experiment [17], in [18] and in experiment [19] was greater than 100 µM throughout.

Regarding `COc1ccc(NC(=O)/C(=N/NC(N)=S)C2C(=O)NC(=S)NC2=O)c(OC)c1`, the TGI in experiment [1], in experiment [2], in [3], in experiment [4], in [5] and in [6] was greater than 100 µM each time. Moreover, the TGI in experiment [7], in experiment [8], in [9], in experiment [11], in experiment [12] and in experiment [13] was greater than 100 µM each time. Moreover, the TGI in experiment [14], in experiment [15], in experiment [16], in experiment [17], in experiment [18] and in experiment [19] was greater than 100 µM throughout.

As to `CCCCN(Cc1ccccc1)C(=NC#N)N(Cc1ccccc1)Cc1ccccc1`, the TGI in experiment [1] is 31.8 µM; in experiment [2], 77.2 µM; in [3], greater than 100 µM; in experiment [4] it was 54 µM; in experiment [5] it was 35.1 µM; in experiment [6], 47.4 µM. Further, the TGI in experiment [7] was 40.6 µM; in experiment [8], 32.8 µM; in experiment [9], 49.8 µM; in experiment [10], 63.8 µM; in experiment [11], greater than 100 µM; in experiment [12], greater than 66 µM. Also, the TGI in experiment [13] was 46.8 µM; in experiment [14], greater than 96.1 µM; in experiment [15] it was greater than 80.5 µM; in experiment [16], greater than 100 µM; in experiment [17] it was greater than 100 µM; in experiment [18], 81.4 µM. Besides, the TGI in [19] was greater than 52.4 µM.

As for `COC(=O)C1(C(=O)OC)Cc2ccc(C)cc2C2=C1C(=O)c1ccccc1C2=O`, the TGI in [1] was 40.3 µM; in experiment [2] it was 30.1 µM; in experiment [3], 46.5 µM; in experiment [4], 59.6 µM; in experiment [5] it was 39.9 µM; in experiment [7], 32 µM. The TGI is 31.3 µM in experiment [8]; 48.9 µM in experiment [11]; 36.1 µM in experiment [12]; 61.8 µM in [13]; 48.1 µM in experiment [15]; greater than 100 µM in experiment [20]. The TGI in [16] is 29.9 µM; in experiment [17], greater than 100 µM.

For the molecule `CC(C)(C)c1ccc(-n2c3nc(=O)n(-c4ccccc4CO)c(=O)c-3cc3ccccc32)cc1`, the TGI is greater than 100 µM in experiment [1]; greater than 100 µM in experiment [2]; greater than 100 µM in [3]; greater than 100 µM in experiment [4]; 37.9 µM in [5]; greater than 100 µM in [6]. For the same molecule, the TGI in experiment [7] is greater than 100 µM; in experiment [8], greater than 100 µM; in experiment [10], 55.2 µM; in experiment [11], greater than 100 µM; in [12], greater than 100 µM; in experiment [13], 88.1 µM. In addition, the TGI was greater than 100 µM in experiment [15]; 73 µM in [20]; greater than 100 µM in [16]; greater than 100 µM in experiment [17]; greater than 100 µM in experiment [18]; greater than 100 µM in experiment [19].
